From patent publication US11407768B2, “AMPK activators” (Kallyope, Inc., priority 2020, dated 2022)
Structures can show the parent of a compound that is named as a salt.

Tests used:
[1] = system: Chemotherapy-induced Intestinal Injury Model; assay: Diarrhea in mouse chemotherapy-induced (5FU) intestinal injury model; assay type: in vivo, BALB/c mice; details: 5FU 400 mg/kg IP; for Diarrhea Score Day 5 / Diarrhea Score Day 6: score 0-3
Procedure: Compounds were formulated in vehicle (0.25% methyl cellulose, 5% Tween 80, 0.02% sodium dodecyl sulfate (SDS) in Hanks' Buffered Salt Solution with Ca' and Mg'). On day 1, either saline or a 400 mg/kg dose of 5-fluorouracil (5FU) in saline was administered by intraperitoneal injection to BALB/c mice. Starting on day 2, vehicle or compound was administered twice a day by oral gavage. From days 5 to 6 post-5FU, the animals were scored for diarrhea severity once a day. The diarrhea was scored 0-3 as follows: 0—normal consistency (black and solid), 1—soft (black and a bit lighter/yellow), 2—loosely shaped stool (yellowish and somewhat watery), 3—extreme diarrhea (very watery).

[2] = Pharmacokinetics (oral bioavailability) in C57BL/6 mice; details: mouse, in vivo; for bioavailability: IV 1 mg/kg, PO 30 mg/kg; for Vd: following IV administration, 1 mg/kg, read-out: volume of distribution
Procedure: Selected compounds were tested for pharmacokinetics in C57BL/6 mice. Compounds 1, 4, 31, 32, 40, 55, 57 and 60 were dosed IV at 1 mg/kg as a formulation of 0.2 mg/mL in 5% DMSO+30% PEG400+65% water and were dosed PO at 30 mg/kg as a formulation of 3 mg/mL in 0.25% MC+5% Tween 80+0.02% SDS. Compound 2 was dosed IV at 1 mg/kg as a formulation of 0.2 mg/mL in 5% ethanol +95% saline and was dosed PO at 30 mg/kg as a formulation of 3 mg/mL in 0.25% MC+5% Tween 80+0.02% SDS.

[3] = target: Recombinant AMPK α1/β1/γ1 complex (Homo sapiens (Human), UniProt Q13131+Q9Y478); assay: In vitro pAMPK1 kinase activation assay (ADP-Glo, SAMS peptide); assay type: biochemical; details: AMPK α1/β1/γ1 pre-activated with CAMKK2; 12-point curve; 15 min compound incubation
Procedure: Compound effect on AMPK enzyme activation was determined in a cell-free format with a 12-point concentration curve. The ADP-Glo detection system was used to determine phosphorylation of a SAMS peptide substrate. Recombinant AMPK α1/β1/γ1 complex was pre-activated by phosphorylation with CAMKK2 followed by incubated with compound for 15 minutes prior to the SAMS phosphorylation reaction. Activity curves and EC50 values were fitted by interpolation to an ATP:ADP standard curve as indicated by the ADP-Glo manufacturer using Prism software.

Caco-2 cells = assay: in vitro
Procedure: Caco-2 cells purchased from ATCC were seeded onto […] (PET) in 96-well BD Insert plates at 1×10^5 cells/cm^2, and refreshed medium every 4-5 days until to the 21st to 28th day for confluent cell monolayer formation. The transport buffer in the study was HBSS with 10 mM HEPES at pH 7.40±0.05. Test compounds were tested at 2 μM bi-directionally in duplicate. Digoxin was tested at 10 μM bi-directionally in duplicate, while nadolol and metoprolol were tested at 2 μM in A to B direction in duplicate. Final DMSO concentration was adjusted to less than 1%.
The plate was incubated for 2 hours in CO2 incubator at 37±1° C., with 5% CO2 at saturated humidity without shaking. All samples were mixed with acetonitrile containing internal standard and were centrifuged at 4000 rpm for 10 min. Subsequently, 100 μL supernatant solution was diluted with 100 μL distilled water for LC/MS/MS analysis. Concentrations of test and control compounds in starting solution, donor solution, and receiver solution were quantified by LC/MS/MS, using peak area ratio of analyte/internal standard.

blood glucose levels = assay: Intraperitoneal (IP) glucose tolerance test in mice; assay type: in vivo
Source text: Systemic AMPK target engagement in vivo can be assessed by measuring the glucose levels in blood following administration of compounds, whereby AMPK activation in skeletal muscle leads in a decrease in overall blood glucose levels.
Compounds were formulated in vehicle (0.25% methyl cellulose, 5% Tween 80, 0.02% sodium dodecyl sulfate (SDS) in Hanks' Buffered Salt Solution with Ca^2+ and Mg^2). Immediately prior to compound dosing, the tip of the tail was removed with scissors and a drop of blood was collected onto a glucometer strip (Bayer Contour Next) for a −1 hour blood glucose measure. The mice were then immediately administered vehicle or compound at 10 mL/kg PO. Approximately one hour later, mice were tail bled for a 0 min blood glucose reading, and then immediately after were administered D(+) glucose (2 g/kg, made up in saline) at 5 mL/kg IP. Tail bleeds were then performed on all mice at 20 min, 40 min, 60 min, and 90 min post D(+) glucose administration for blood glucose measures. Area under the curves (AUCs) for blood glucose measures were then calculated for each treatment from 0-90 mins.

Chain of Recombinant AMPK α1/β1/γ1 complex (Q13131 whole entry): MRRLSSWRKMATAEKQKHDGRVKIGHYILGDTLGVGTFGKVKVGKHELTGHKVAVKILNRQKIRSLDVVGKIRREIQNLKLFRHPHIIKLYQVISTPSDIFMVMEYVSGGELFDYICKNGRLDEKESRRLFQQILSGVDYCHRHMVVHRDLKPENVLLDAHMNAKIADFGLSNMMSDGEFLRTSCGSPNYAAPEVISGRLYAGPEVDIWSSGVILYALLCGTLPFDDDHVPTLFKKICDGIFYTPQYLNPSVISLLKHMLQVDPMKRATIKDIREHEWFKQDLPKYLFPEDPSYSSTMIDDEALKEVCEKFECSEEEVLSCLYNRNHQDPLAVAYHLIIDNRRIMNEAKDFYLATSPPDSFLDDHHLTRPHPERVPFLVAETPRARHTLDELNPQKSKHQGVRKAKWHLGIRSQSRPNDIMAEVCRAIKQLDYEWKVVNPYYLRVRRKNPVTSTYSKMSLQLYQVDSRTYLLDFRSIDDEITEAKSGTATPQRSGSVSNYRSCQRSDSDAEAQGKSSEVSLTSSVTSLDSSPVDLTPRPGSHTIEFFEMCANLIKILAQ
Chain of Recombinant AMPK α1/β1/γ1 complex (Q9Y478 whole entry): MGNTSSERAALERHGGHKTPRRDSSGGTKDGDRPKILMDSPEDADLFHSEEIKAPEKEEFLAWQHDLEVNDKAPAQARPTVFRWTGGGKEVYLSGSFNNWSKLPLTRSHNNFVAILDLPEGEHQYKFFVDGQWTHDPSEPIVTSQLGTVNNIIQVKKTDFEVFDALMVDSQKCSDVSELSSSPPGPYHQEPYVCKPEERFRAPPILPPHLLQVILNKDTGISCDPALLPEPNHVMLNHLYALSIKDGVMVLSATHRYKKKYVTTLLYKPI
Chain of Recombinant AMPK α1/β1/γ1 complex (P54619 whole entry partner): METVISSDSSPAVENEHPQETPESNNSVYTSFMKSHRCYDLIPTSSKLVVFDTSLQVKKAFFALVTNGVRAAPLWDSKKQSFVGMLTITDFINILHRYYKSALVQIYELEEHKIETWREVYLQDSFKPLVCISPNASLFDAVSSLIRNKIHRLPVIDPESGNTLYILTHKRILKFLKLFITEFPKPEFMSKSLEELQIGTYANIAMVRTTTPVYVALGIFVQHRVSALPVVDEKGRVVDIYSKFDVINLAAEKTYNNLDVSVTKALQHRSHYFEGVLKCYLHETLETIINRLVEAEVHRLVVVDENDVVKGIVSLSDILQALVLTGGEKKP

bioavailability [2] [%] | Vd [2] [L/kg] | EC50 [3] [nM] | Compound | Diarrhea Score Day 5, % Change vs. Vehicle ([1]; 30 mpk BID oral) [%] | Diarrhea Score Day 6, % Change vs. Vehicle ([1]; 30 mpk BID oral) [%] | Diarrhea Score Day 5 ([1]; 30 mpk BID oral) | Diarrhea Score Day 6 ([1]; 30 mpk BID oral) | further results
< 15 | < 5 | 0.85 | OCC1(CO)CCN(Cc2ccc(-c3ccc(-c4cc5nc(O[C@@H]6CO[C@H]7[C@@H]6OC[C@H]7O)[nH]c5cc4Cl)cc3)cc2)CC1 [Compound 60, (1-((4′-(6-chloro-2-(((3R,3aR,6R,6aR)-6-hydroxyhexahydrofuro[3,2-b]furan-3-yl)oxy)-1H-benzo[d]imidazol-5-yl)-[1,1′-biphenyl]-4-yl)methyl)piperidine-4,4-diyl)dimethanol] | −71 | −66 | 0.38 | 0.38 | 
 |  |  | CC(C)(C)NCC(O)COc1cccc2c1CC(O)C(O)C2 (centres unmarked) [Nadolol, nadolol, reference compound] |  |  |  |  | Mean Recovery A to B (Caco-2 cells; Caco-2): 97.74%; Mean Papp A to B (Caco-2 cells; Caco-2, pH 7.4): 0.08 10^−6 cm/s
< 10 | < 5 |  | OCC(CO)NCc1ccc(-c2ccc(-c3cc4nc(O[C@@H]5CO[C@H]6[C@@H]5OC[C@H]6O)[nH]c4cc3Cl)cc2)cc1 [Compound 40, 2-(((4′-(6-chloro-2-(((3R,3aR,6R,6aR)-6-hydroxyhexahydrofuro[3,2-b]furan-3-yl)oxy)-1H-benzo[d]imidazol-5-yl)-[1,1′-biphenyl]-4-yl)methyl)amino)propane-1,3-diol] | −66 | −59 | 0.38 | 0.75 | 
< 1 | < 5 | 1.4 | O=P(O)(O)c1ccc(-c2ccc(-c3nc4nc(O[C@@H]5CO[C@H]6[C@@H]5OC[C@H]6O)[nH]c4cc3Cl)cc2)cc1 [Compound 2, (4′-(6-chloro-2-(((3R,3aR,6R,6aR)-6-hydroxyhexahydrofuro[3,2-b]furan-3-yl)oxy)-1H-imidazo[4,5-b]pyridin-5-yl)-[1,1′-biphenyl]-4-yl)phosphonic acid] |  |  |  |  | % Change in Average Total AUC (0-90 min) vs. Vehicle (blood glucose levels; 30 mpk PO, blood glucose, glucose 2 g/kg IP): +6.6%; change in blood glucose AUC vs. vehicle / systemic AMPK activation (in words) (blood glucose levels; 30 mpk for all compounds, up to 100 mpk for Compound 4): do not lead to activation of AMPK in skeletal muscle

Compound | bioavailability [2] [%] | Vd [2] [L/kg] | EC50 [3] [nM] | Diarrhea Score Day 5, % Change vs. Vehicle ([1]; 30 mpk BID oral) [%] | Diarrhea Score Day 6, % Change vs. Vehicle ([1]; 30 mpk BID oral) [%] | Diarrhea Score Day 5 ([1]; 30 mpk BID oral) | Diarrhea Score Day 6 ([1]; 30 mpk BID oral) | further results
O=C(NCC[N+]12CCN(CC1)CC2)c1ccc(-c2ccc(-c3cc4nc(O[C@@H]5CO[C@H]6[C@@H]5OC[C@H]6O)[nH]c4cc3Cl)cc2)cc1 [Compound 32, 1-(2-(4′-(6-chloro-2-(((3R,3aR,6R,6aR)-6-hydroxyhexahydrofuro[3,2-b]furan-3-yl)oxy)-1H-benzo [d]imidazol-5-yl)-[1,1′-biphenyl]-4-carboxamido)ethyl)-1,4-diazabicyclo[2.2.2]octan-1-ium formate] | < 1 | < 1 |  |  |  |  |  | Diarrhea Score Day 5, % Change vs. Vehicle ([1]; 20 mpk BID oral): −43%; Diarrhea Score Day 6, % Change vs. Vehicle ([1]; 20 mpk BID oral): −52%; Diarrhea Score Day 5 ([1]; 20 mpk BID oral): 0.63; Diarrhea Score Day 6 ([1]; 20 mpk BID oral): 0.88
